Values quoted from earlier work as cited in patent publication US11022607B2, “Compound-carrier systems for assays in nematodes” (Assistance Publique—Hôpitaux de Paris, priority 2013, dated 2021).

Tested on: C. elegans
Conditions: 25 ml of liposomes containing 50 mg of uranin; in 3 h

Structure (SMILES): O=C([O-])c1ccccc1-c1c2ccc(=O)cc-2oc2cc([O-])ccc12.[Na+].[Na+] [uranin]
- amount of fluorescent dye absorption, compared with worms administered dye by conventional methods: 100 fold
